Measurements published in patent US20260007133A1, “HERBICIDAL COMPOSITION COMPRISING AZINE COMPOUNDS” (BASF SE, priority 2022, published 2026).
Where “and” joins values, the source holds several entries; their conditions need not be identical. Equal values may be shown once. Read-outs that look alike come from different tables or passages of the source.

Key:
Format in all cases: in vivo
Ipomoea hederacea = experiment: Greenhouse pre-emergence (PRE) herbicidal test on IPOHE; conditions: PRE, IPOHE, 20 DAT
Method in brief: (§1)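 Visual rating on a 0 (normal growth) to 100 (no emergence or above-ground kill) scale at 20 DAT. Treatment was pre-emergence spray of aqueous suspension/emulsion right after sowing into loamy sand with ~3.0% humus; covered until rooted, grown at 10-25° C or 20-35° C depending on species.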

Echinochloa crus-galli [1] = experiment: Greenhouse pre-emergence (PRE) herbicidal test on ECHCG; conditions: PRE, ECHCG, use rate 2 gai/ha, 20 DAT
Echinochloa crus-galli [2] = experiment: Greenhouse post-emergence (POST) herbicidal test on ECHCG; conditions: Echinochloa crus-galli, post-emergence; for inhibition at 1 g/ha: use rate 1 gai/ha
Method in brief: (§2)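 For this test, compounds formulated as a 5% by weight emulsion concentrate were diluted into spray liquor and applied post-emergence. Species were kept at 10-25° C or 20-35° C and injury was scored at 20 DAT on a 0–100 scale.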

Commelina benghalensis [3] = experiment: Greenhouse pre-emergence (PRE) herbicidal test on COMBE; conditions: Commelina benghalensis, pre-emergence, COMBE PRE
Method in brief: (§3)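 Scoring ran from 0 (normal growth) to 100 (no emergence or above-ground parts fully destroyed) and was done 20 DAT. Application was pre-emergent in pots of loamy sand (~3.0% humus) sown per species. Plants grew at 10-25° C or 20-35° C by species.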

Brachiaria decumbens = experiment: Greenhouse pre-emergence (PRE) herbicidal test on BRADC; conditions: Urochloa decumbens, PRE, BRADC, use rate 1 gai/ha
Method in brief: as §1

Polygonum convolvulus = experiment: Greenhouse pre-emergence (PRE) herbicidal test on POLCO; conditions: Fallopia convolvulus, pre-emergence, use rate 1 gai/ha
Excerpt: (§4) The culture containers used were plastic pots containing loamy sand with approximately 3.0% of humus as substrate. The seeds of the test plants were sown separately for each species.
For the pre-emergence treatment, the active compounds, suspended or emulsified in water, were applied directly after sowing by means of finely distributing nozzles. The containers were irrigated gently to promote germination and growth and subsequently covered with transparent plastic hoods until the plants had rooted. This cover caused uniform germination of the test plants unless this was adversely affected by the active compounds.
(§5) Depending on the species, the plants were kept at 10-25° C. and 20-35° C., respectively.
(§6) The test period extended over 2 to 4 weeks. During this time, the plants were tended and their response to the individual treatments was evaluated.
(§7) Evaluation was carried out using a scale from 0 to 100. 100 means no emergence of the plants, or complete destruction of at least the above-ground parts, and 0 means no damage or normal course of growth. A good herbicidal activity is given at values of at least 70, and very good herbicidal activity is given at values of at least 85.
(§8) If not stated differently, the respective components A and B, and if appropriate, C were formulated as a 5% by weight strength emulsion concentrate and, with addition of the amount of solvent system, introduced into the spray liquor used for applying the active compound.
(§9) As indicated application was either post emergent (POST) at the respective growth stage (GS) of the weed (BBCH code), or pre-emergent (PRE).
(§10) Assessment was 20 days after treatment (DAT).

Abutilon theophrasti = experiment: Greenhouse post-emergence (POST) herbicidal test on ABUTH; conditions: Abutilon theophrasti, post-emergence, POST, ABUTH; for inhibition at 2 g/ha: use rate 2 gai/ha, read-out: % activity
Method in brief: as §2

Amaranthus retroflexus = experiment: Greenhouse post-emergence (POST) herbicidal test on AMARE; conditions: Amaranthus retroflexus, post-emergence, POST; AMARE; use rate 1 gai/ha
Method in brief: as §2

Commelina benghalensis [4] = experiment: Greenhouse post-emergence (POST) herbicidal test on COMBE; conditions: 480 h, use rate 16 gai/ha, 20 DAT
Description: as §4
(§11) For the post-emergence treatment, the test plants were grown to a plant height of from 3 to 15 cm, depending on the plant habit, and only then treated with the active compounds which had been suspended or emulsified in water. To this end, the test plants were either sown directly, and grown in the same containers, or they were first grown separately as seedlings and transplanted into the test containers a few days prior to treatment.
as §5, §6, §7, §8, §9, §10

Alopecurus myosuroides = experiment: Greenhouse pre-emergence (PRE) herbicidal test on ALOMY
Method in brief: as §3

Setaria viridis = experiment: Greenhouse post-emergence (POST) herbicidal test on SETVI; conditions: 480 h, 20 DAT
Description: as §4, §11, §5, §6, §7, §8, §9, §10

SETFA = experiment: Greenhouse pre-emergence (PRE) herbicidal test on SETFA; conditions: Setaria faberi, use rate 1 gai/ha

COc1c(F)cc(F)c(F)c1Nc1nc(N)nc(C(C)(C)F)n1 [Compound I-1]
inhibition at 8 g/ha (Ipomoea hederacea; Ipomoea hederacea, pre-emergence, 480 h, use rate 8 gai/ha): 70%
inhibition at 16 g/ha (Ipomoea hederacea; Ipomoea hederacea, pre-emergence, 480 h, use rate 16 gai/ha): 75%
% activity (Ipomoea hederacea; use rate 16 gai/ha): 60%
% activity (Echinochloa crus-galli [1]): 35% and 65%
inhibition at 4 g/ha (Echinochloa crus-galli [2]; 480 h, POST, ECHCG, use rate 4 gai/ha, 20 DAT): 0%
inhibition at 1 g/ha (Echinochloa crus-galli [2]; ECHCG POST, read-out: % activity): 30%
inhibition at 1 g/ha (Echinochloa crus-galli [2]; POST, ECHCG, read-out: % activity): 10%
inhibition at 2 g/ha (Echinochloa crus-galli [2]; POST, ECHCG, use rate 2 gai/ha, read-out: % activity): 10%
inhibition at 1 g/ha (Commelina benghalensis [3]; use rate 1 gai/ha): 35%
inhibition at 4 g/ha (Commelina benghalensis [3]; use rate 4 gai/ha): 0%
inhibition at 1 g/ha (Brachiaria decumbens): 0%
inhibition at 1 g/ha (Polygonum convolvulus): 50%
inhibition at 2 g/ha (Abutilon theophrasti; 480 h, 20 DAT): 30%
inhibition at 4 g/ha (Abutilon theophrasti; 480 h, use rate 4 gai/ha, 20 DAT): 50%
inhibition at 1 g/ha (Abutilon theophrasti; use rate 1 gai/ha): 10%
inhibition at 2 g/ha (Abutilon theophrasti): 10%
inhibition at 1 g/ha (Amaranthus retroflexus): 50%
inhibition at 16 g/ha (Commelina benghalensis [4]): 75%
% activity (Alopecurus myosuroides; ALOMY PRE, use rate 1 gai/ha): 30%
inhibition at 1 g/ha (Alopecurus myosuroides; Alopecurus myosuroides, pre-emergence, 480 h, PRE, ALOMY, use rate 1 gai/ha, 20 DAT): 10%
inhibition at 1 g/ha (Alopecurus myosuroides; Alopecurus myosuroides, pre-emergence, ALOMY PRE, use rate 1 gai/ha): 15%
inhibition at 4 g/ha (Alopecurus myosuroides; Alopecurus myosuroides, pre-emergence, ALOMY PRE, use rate 4 gai/ha): 90%
inhibition at 2 g/ha (Setaria viridis; use rate 2 gai/ha): 5%
inhibition at 4 g/ha (Setaria viridis; use rate 4 gai/ha): 70%
inhibition at 1 g/ha (SETFA): 60%
